# Test results from patent publication US11446352B2, “Compositions and methods for inhibiting tumor-induced immune suppression” (priority 2017, dated 2022).
# Key:
# [1] = test system: HER2+ MAD-MB-453 cell line; assay: cell survival of breast cancer cell line upon treatment with EnnA; type: cell-based, human; conditions: MAD-MB-453, 48 and 72 h
# Description: (§1) The first bar indicates 100% folding activity of RRL without inhibitor. PR22 indicates the antibody without PR but with RRL and EnnA. PR represents the antibody (PR22) with PR but without RRL. All other samples have PR22, PR, and RRL without (first bar) or with increased concentration of EnnA. FIGS. 1C-1E are line graphs of cell survival versus EnnA concentration (μM) in breast cancer cell lines Hs578T (FIG. 1C), […] (FIG. 1D) and MDA-MB231 (FIG. 1E) upon treatment with EnnA for 48 and 72 h. […] PR alone (PR), antibody (PR22)+RRL, PR+RRL without inhibitor (RRL), PR+RRL with 1 μM 17-AAG (17AAG) PR+RRL with 10 μM BEAU or EnnA. FIGS. 1G-1I are autoradiographs of Western blots of cytosols from various cell lines treated with 17-AAG (1 μM) or EnnA (3 μM) with antibodies against the specified proteins. FIG. 1J is an autoradiograph showing EnnA causes autophagy in Hs578T and MDA-MB453 cell lines. FIGS. 1K-1N are electron microscopy micrographs showing autophagosomes and reduced mitochondria content in Hs578T cells treated with DMSO or EnnA. FIGS. 1O-1P are fluorescence micrographs showing EnnA causing reduced mitochondria content in Hs578T cells. FIGS. 1Q-1BB are fluorescence micrographs showing mitophagy in Hsp578T cells treated with EnnA as indicated by colocalization of the mitochondria marker Cox4 and the autophagy marker LC3BII.
# [2] = test system: Hs578T triple-negative cell line; assay: as above; type: cell-based, human; conditions: 48 and 72 h
# Description: as §1
# MDA-MB-231 cell line = assay: as above; type: cell-based, human; conditions: MDA-MB-231, 48 and 72 h
# Description: as §1
# [3] = test system: Hsp90 client proteins, Hsp70, Hsp27; assay: Western blots of cytosols from cell lines treated with 17-AAG or EnnA; type: cell-based, human
# Description: as §1
# [4] = test system: Hs587T and MDA-MB-453 cell lines; assay: autophagy, mitochondria content and mitophagy in treated cancer cells; type: cell-based, human
# Description: as §1
# [5] = test system: Hsp90β on the surface of E0771 and AT3 cells; assay: FACS analysis of Hsp90β expression on the cell surface; type: cell-based, murine; conditions: in vitro (E0771, AT3 cell culture) and in vivo (E0771 tumors)
# Description: FIGS. 2I-2K show FACS analysis of Hsp90β expression on the cell surface of E0771 cells treated with DMSO or EnnA. FIGS. 2L-2N show FACS analysis of the ratio of Hsp90α to Hsp90β expression on the cell surface of E0771 cells treated with DMSO or EnnA. FIGS. 2O-2Q show FACS analysis of Hsp90α expression on the cell surface of E0771 cells treated with DMSO or EnnA. FIG. 2R is a bar graph showing expression of Hsp90β on the surface of AT3 cells treated with DMSO or EnnA. FIG. 2S is a bar graph showing expression of Hsp90α on the surface of AT3 cells treated with DMSO or EnnA. FIGS. 2T-2X show FACS analysis of Hsp90β expression on the surface of E0771 tumor cells treated with mIgG, DMSO, or EnnA.
# AT3 cells = assay: Western blot of control and EnnA-treated cells; type: cell-based, murine; conditions: AT3, 0.5 μM EnnA
# Procedure: (§2) FIG. 3A-3B are autoradiographs of a Western blot showing expression of the indicated proteins in control (left lane) and 0.5 μM EnnA-treated (right lane) E0771 (FIG. 3A) and AT3 (FIG. 3B) cells. FIG. 3C is a graph showing FACS analysis of PD-L1 level in AT3 cells. FIGS. 3D-3K are graphs showing qPCR analysis of the mRNA level of cytokines TNFa (FIG. 3D), IL-6 (FIG. 3E), TGFb1 (FIG. 3F) and IL-10 (FIG. 3G), the chemokines S100a9 (FIG. 3J) and CCL3 (FIG. 3K), as well as PDL1 (FIG. 3H) and IDO (FIG. 3I). FIGS. 3L-3Q are micrographs of HEK293 cells transiently transfected with GFP-IDO fusion protein expressing or GFP alone plasmids for 24 h. Cells were then treated with 5 μM EnnA for 6 h and analyzed for green fluorescence and bright light. FIG. 3R is a line graph of μg/ml of tryptophan and its IDO-mediated product kynurenine using the previously reported HPLC-based assay.
# E0771 cells = assay: Western blot of control and EnnA-treated cells; type: cell-based, murine
# Procedure: as §2
# [6] = test system: murine breast cancer cells; assay: qPCR analysis of mRNA level of cytokines, chemokines, PDL1 and IDO; type: cell-based
# Procedure: as §2
# E0771 tumors = assay: E0771 syngeneic tumor model in C57BL/6 immunocompetent mice; type: in vivo; conditions: for anti-tumor activity (tumor volume): C57BL/6, 10 mg/kg every other day
# Procedure: 50,000 E0771 cells were surgically implanted in mammary fad pad of 10 C57BL/6 immunocompetent mice and 10 immunocompromised nude mice. 12 days after surgery, B6 and nude mice were divided into two groups each. the EnnA group was injected with 10 mg/kg of EnnA every other day, and the control group received a mixture of 15% DMSO and 20% cremophor in PBS.
# 100,000 E0771 cells were surgically implanted in mammary fat pad of 20 mice. Ten days after surgery, mice were divided into two groups: the EnnA group was injected with 10 mg/kg of EnnA every other day, and the control group received a mixture of 15% DMSO and 20% cremophor in PBS.
structure (smiles),measurement,setting,value
"CC[C@H](C)[C@H]1C(=O)O[C@H](C(C)C)C(=O)N(C)[C@@H]([C@@H](C)CC)C(=O)O[C@H](C(C)C)C(=O)N(C)[C@@H]([C@@H](C)CC)C(=O)O[C@H](C(C)C)C(=O)N1C [EnnA, Enniatin A]",cytotoxicity,[1],potent and concentration-dependent cytotoxicity
same,cytotoxicity,[2],potent and concentration-dependent cytotoxicity
same,cytotoxicity,MDA-MB-231 cell line,potent and concentration-dependent cytotoxicity
same,stability of Hsp90 client proteins,[3]; EnnA 3 μM,destabilization
same,induction of Hsp27,[3]; MAD-MB-453 cells,slightly induced
same,overexpression of Hsp70,"[3]; all cell lines tested, EnnA 3 μM",does not induce overexpression
same,mitochondria content in cancer cells,[4]; Hs578T cells,reduces
same,mitophagy,"[4]; Hs578T cells, Cox4 / LC3BII colocalization",induction of mitophagy
same,mode of cell death (apoptosis / autophagy),[4]; Hs587T and MDA-MB-453 cell lines,induces autophagy
same,exposure of Hsp90β to the surface of cancer cells,[5],induces exposure
same,Hsp70 protein,AT3 cells,reduced
same,pAKT protein,AT3 cells,destabilizes
same,protein expression of Hsp40,AT3 cells,reduces
same,IDO protein level,"E0771 cells; E0771 (FIG. 3A), 0.5 μM EnnA",severely reduced
same,Hsp70 protein,"E0771 cells; E0771, 0.5 μM EnnA",slightly increased
same,pAKT protein,"E0771 cells; E0771, 0.5 μM EnnA",destabilizes
same,protein expression of Hsp40,"E0771 cells; E0771, 0.5 μM EnnA",reduces
same,level of anti-inflammatory IL-10 mRNA,[6],reduces
same,mRNA expression of IL-6,[6],significant increase
same,mRNA expression of TGFβ,[6],significant increase
same,mRNA expression of TNFα,[6],significant increase
same,"mRNA expression of indolamine 2,3 dioxygenase",[6],highly increased
same,mRNA level of chemokine CCL3,[6],reduces
same,mRNA level of chemokine S100a9,[6],reduces
same,mRNA and protein levels of PDL-1,[6]; Western blot / FACS,reduces
same,effect on bodyweight or activities of mice,E0771 tumors; 10 mg/kg every other day,No significant effect
same,anti-tumor activity (tumor volume),"E0771 tumors; Example 3: 50,000 E0771 cells",powerful anti-tumor activity
same,anti-tumor activity (tumor volume),"E0771 tumors; Example 4: 100,000 E0771 cells",powerful anti-tumor activity
